Data set [1] relates to apomorphine-induced stereotyped behavior. The data set can be described thus: Activity of reducing the apomorphine-induced stereotyped behavior (Experiment I). Type of data set: in vivo, rat (male, Wistar). Particulars: sc, read-out: ED50, activity of reducing apomorphine-induced stereotyped behavior.
Data set [2] has as its system conditioned avoidance response. The data set can be described thus: Activity of reducing the conditioned avoidance response, shuttle box (Experiment II a). The format is in vivo, rat (male, Wister). Particulars: sc, read-out: ED50, activity of reducing the conditioned avoidance response. On the procedure: (a) Activity of reducing the conditioned avoidance response:
By a shuttle box method using rats (male, Wister, about 300 g.), a test sample was administered subcutaneously to the rats, after 30 minutes, a conditioned stimulation (buzzer noise for at longest 5 seconds) was applied, and then the avoidance response was observed. Then, from the relation of the ratio of inhibition of avoidance response and the amount of the test sample used, ED50 was determined. In addition, the training of applying an electric stimulation (A.C. 40 volts) as an unconditioned stimulation from a grid on a floor for at longest 5 seconds was applied to rats at 20 times/day for 6 days and the rats showing the ratio of avoidance response of higher than 80% were used in the experiment.

For data set [3], the system named is methamphetamin-induced stereotyped behavior. Kind of data set: Activity of reducing the methamphetamin-induced stereotyped behavior (Experiment II b). Type of data set: in vivo, rat (male, Wister). The settings on record: sc, read-out: ED50, activity of reducing the methamphetamin-induced stereotyped behavior. The procedure:
(b). Activity of reducing the methamphetamin-induced stereotyped behavior:
A test sample was administered subcutaneously to the rats, after 30 minutes, 5 mg./kg. of methamphetamine was administered intraperitoneally, and then after 60 minutes and 90 minutes since then, the symptom of the methamphetamin-induced stereotyped behavior was observed. From the relation of the ratio of inhibition and the amount of the test sample used, ED50 was determined.

Data set [4] is described as follows: Cataleptogenic activity (Experiment III a). Also noted: species or system mouse (male, ICR). The settings on record: in vivo, sc; mouse, 30 min, fore-limbs hung on horizontal rod for 30 second. On the procedure: (a) Cataleptogenic activity:
By referring to the method by Curvoisier et al (Psychotropic drugs, 373(1957)), a test sample was subcutaneously administered to mice (male, ICR, 8 weeks age) and after 30 minutes since then, the both fore-limb was forcibly hung on a horizontal metallic rod of 2 mm. diameter placed at a height of 6 cm. and when the mouse was kept in that state for 30 second, the activity of the mouse was considered to be a positive cataleptogenic activity. From the relation of the ratio of inhibition and the amount of the test sample used, ED50 was determined.

Data set [5] can be described thus: Acute toxicity, up-down method (Experiment III b). Particulars: in vivo, iv, mouse. The procedure:
A test sample was administered to mice (male, ICR, 8 week age) by an intravenous injection and then LD50 was determined by an up-down method.

For data set [6] the following is noted: according to the Dutch patent; cited from earlier work.
Where [7] appears, read: rat, s.c., 30 min before 1.25 mg/Kg apomorphine i.v., observed after 5, 10, 20 min.
Where [8] appears, read: rat, s.c., 30 min before conditioned stimulation, shuttle box.
Setting [9] is: rat, s.c., 30 min before 5 mg./kg. methamphetamine i.p., observed after 60 and 90 min.

Where a name gives a salt, the structure may show the parent alone. Read-outs that look alike come from different tables or passages of the source.

By ED50 is commonly meant the dose that gives a 50% effect, or the effect in half of the subjects. Take `CCN1CCCC1CNC(=O)c1cc(S(=O)(=O)CC)ccc1OC` (stereo not drawn) [Sultopiride, reference compound]: the ED50 in data set [1] (setting [7]) was 18 mg/kg.
In general, LD50 refers to the dose at which mortality reaches 50%. Read a high LD50 as a less toxic substance. On to `COc1cc(N)c(Cl)cc1C(=O)NCCN(C)Cc1ccccc1` [N-[2-(N'-benzyl-N'-methylamino)ethyl]-4-amino-5-chloro-2-methoxybenzamide], for which the ED50 in data set [1] (setting [7]) was determined as 0.54 mg/kg; in data set [2] (setting [8]), 0.2 mg/kg; in data set [3] (setting [9]), 3 mg/kg. In addition, it took a dose of 60 mg/kg to reach the 50% effect level in data set [4] (ED50 at 0.5 h). The same molecule displayed an LD50 in data set [5] of 48 mg/kg.
`CCN(CCNC(=O)c1cc(Cl)c(N)cc1OC)Cc1cccc(Cl)c1` [N-[2-(N'-m-chlorophenylmethyl-N'-ethylamino)ethyl]-4-amino-5-chloro-2-methoxybenzamide]: the results for the ED50 in data set [1] (setting [7]) and in data set [3] (setting [9]) were 0.3 mg/kg and 1 mg/kg, respectively.
On to `COc1cc(C(=O)NC2CCN(Cc3ccccc3)C2)cc(OC)c1OC` (stereo not drawn) [N-(1-benzyl-3-pyrrolidinyl)-3,4,5-trimethoxybenzamide, reference compound], for which the ED50 in data set [1] (setting [7]) is greater than 10 mg/kg.
As to `CCS(=O)(=O)c1ccc(OC)c(C(=O)NCC2CCC(C)N2Cc2ccccc2)c1.Cl` (stereo not drawn) [N-(1-benzyl-5-methyl-2-pyrrolidinylmethyl)-5-ethylsulfonyl-2-methoxybenzamide hydrochloride], the ED50 in data set [1] (setting [7]) amounted to 0.3 mg/kg; in data set [2] (setting [8]) it was 0.3 mg/kg; in data set [3] (setting [9]), 1.8 mg/kg.
Take `COc1cc(N)c(Cl)cc1C(=O)NC1CCN(C2CCCCC2)C1` (stereo not drawn) [N-(1-cyclohexyl-3-pyrrolidinyl)-4-amino-5-chloro-2-methoxybenzamide, reference compound]: the ED50 in data set [1] (setting [7]) turned out to be 1.8 mg/kg. The “antiemetic activity (in words)” value in data set [6] is recorded as “strongest antiemetic activity”.
For the molecule `COc1cc(C(=O)NCCN(C)Cc2ccccc2)cc(OC)c1OC` [N-[2-(N'-benzyl-N'-methylamino)ethyl]-3,4,5-trimethoxybenzamide, reference compound], the ED50 in data set [1] (setting [7]) is greater than 30 mg/kg.
As for `CCN(CCNC(=O)c1cc(Cl)c(N)cc1OC)Cc1ccc(Cl)cc1` [N-[2-(N'-p-chlorophenylmethyl-N'-ethylamino)ethyl]-4-amino-5-chloro-2-methoxybenzamide], the ED50 is 0.18 mg/kg in data set [1] (setting [7]), 0.1 mg/kg in data set [2] (setting [8]) and 1 mg/kg in data set [3] (setting [9]).
Regarding `COc1cc(N)c(Cl)cc1C(=O)NC1CCN(Cc2ccccc2)C1` (stereo not drawn) [N-(1-benzyl-3-pyrrolidinyl)-4-amino-5-chloro-2-methoxybenzamide], the ED50 was determined as 0.22 mg/kg in data set [1] (setting [7]), 0.3 mg/kg in data set [2] (setting [8]) and 0.72 mg/kg in data set [3] (setting [9]).
Turning to `CCN(CCNC(=O)c1cc(Cl)c(N)cc1OC)Cc1ccc(OC)cc1` [N-[2-(N'-p-methoxyphenylmethyl-N'-ethylamino)ethyl]-4-amino-5-chloro-2-methoxybenzamide], in data set [1] (setting [7]), the ED50 turned out to be 0.3 mg/kg.
`CCN(CCNC(=O)c1cc(Cl)c(N)cc1OC)Cc1ccc(F)cc1` [N-[2-(N'-ethyl-N'-p-fluorophenylmethylamino)ethyl]-4-amino-5-chloro-2-methoxybenzamide]: the ED50 in data set [1] (setting [7]) was determined as 0.18 mg/kg.
`CN(C)CCCN1c2ccccc2Sc2ccc(Cl)cc21` [Chlorpromazine, reference compound]: the ED50 is 2.5 mg/kg in data set [1] (Rattus norvegicus), 0.8 mg/kg in data set [2] (Rattus norvegicus) and 3 mg/kg in data set [3] (Rattus norvegicus). The ED50 at 0.5 h in data set [4] is 10 mg/kg. For the same molecule, the LD50 in data set [5] worked out at 59 mg/kg.
On to `COc1cc(N)c(Cl)cc1C(=O)NCC1CCC(C)N1Cc1ccccc1` (stereo not drawn) [N-(1-benzyl-5-methyl-2-pyrrolidinylmethyl)-4-amino-5-chloro-2-methoxybenzamide], for which the ED50 in data set [1] (setting [7]) stood at 0.18 mg/kg; in data set [2] (setting [8]) it was 0.18 mg/kg; in data set [3] (setting [9]), 1 mg/kg. The molecule further registered an ED50 at 0.5 h in data set [4] of 30 mg/kg. In addition, the LD50 in data set [5] worked out at 49 mg/kg.
Turning to `CCN(CCNC(=O)c1cc(S(=O)(=O)CC)ccc1OC)Cc1ccc(Cl)cc1` [N-[2-(N'-p-chlorophenylmethyl-N'-ethylamino)ethyl]-3-ethylsulfonyl-6-methoxybenzamide hydrochloride], the results for the ED50 in data set [1] (setting [7]) and in data set [3] (setting [9]) were 0.47 mg/kg and 3 mg/kg, respectively.
Consider `CCN(CCNC(=O)c1cc(Cl)c(N)cc1OC)Cc1ccccc1` [N-[2-(N'-benzyl-N'-ethylamino)ethyl]-4-amino-5-chloro-2-methoxybenzamide], for which the ED50 in data set [1] (setting [7]) worked out at 0.2 mg/kg; in data set [2] (setting [8]) it was 0.1 mg/kg; in data set [3] (setting [9]), 1.8 mg/kg.
Consider `CCN1CCCC1CNC(=O)c1cc(S(N)(=O)=O)ccc1OC` (stereo not drawn) [Sulpiride, reference compound], for which the median effective dose (ED50) in data set [1] (setting [7]) was greater than 100 mg/kg.
In the case of `COc1cc(N)c(Cl)cc1C(=O)NC1CCN(Cc2ccc(Cl)cc2)C1` (stereo not drawn) [N-(1-p-chlorophenylmethyl-3-pyrrolidinyl)-4-amino-5-chloro-2-methoxybenzamide], the ED50 in data set [1] (setting [7]) came to 0.18 mg/kg; in data set [2] (setting [8]), 0.1 mg/kg.
For the molecule `CCN(CC)CCNC(=O)c1cc(Cl)c(N)cc1OC` [Metoclopramide, reference compound], in data set [1] (setting [7]), the ED50 is 4.1 mg/kg.

The record behind these values is patent publication US4097487A, “Pyrrolidinyl and piperidinyl benzamide derivatives” (Yamanouchi Pharmaceutical Co., Ltd., priority 1975, dated 1978).
